The source of these data is patent publication US12622917B2, “High-activity Wnt pathway inhibitor compound” (ADLAI NORTYE BIOPHARMA CO., LTD., priority 2020, dated 2026).

What all share (format): cell-based
In experiment [1] the test system is Colo205-LUC-TCF/LEF M1 reporter cell line (Wnt pathway). Put plainly: Colo205-LUC-TCF/LEF M1 reporter gene (luciferase) inhibition. To be noted: 4 hours incubation, luciferase readout. Put shortly: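 Luminescent readout of TCF/LEF-regulated luciferase after a 4 h, 37° C compound exposure in a stable Colo205 reporter clone (10,000 cells/well). Serial 3-fold dilutions started at 20 uM; IC50 derived using DMSO-treated cells and no-cell wells as controls.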
On the technique in general: In a reporter assay the amount or activity of a reporter protein is the signal.

In another experiment the test system is Colo205. The experiment can be described thus: Proliferation inhibition, Wnt mutant cell line Colo205. To be noted: Homo sapiens, COLO 205; Colo205, Wnt pathway-dependent, 96 hours; read-out: Antiproliferative IC50 Colo205. Put shortly: (§1)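 Cells were seeded at 1000 per well, incubated 20-24 h at 37° C in 5% CO2, then exposed to 3-fold serially diluted compound (top final concentration 20 uM) for 96 hours. Viability was read by a Promega cell viability assay; IC50 values were derived relative to DMSO-only and cell-free control wells.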

The next experiment relates to DU4475. The experiment can be described thus: Proliferation inhibition, Wnt mutant cell line DU4475. To be noted: Homo sapiens, DU-4475; DU4475, Wnt pathway-dependent, 96 hours; read-out: Antiproliferative IC50 DU4475. Put shortly: as §1
In a further experiment the test system is Hela. Put plainly: Proliferation inhibition, non-Wnt mutant control cell line Hela. To be noted: Homo sapiens, Wnt-independent control cell line, 96 hours, read-out: Antiproliferative IC50 Hela. From the text:
The cell lines used in the experiment are Colo205 and DU4475 cell lines whose Wnt pathway is continuously activated and whose proliferation is Wnt pathway-dependent; while the BELA and RKO cell lines, whose Wnt pathway is not activated under normal circumstances and the proliferation is independent of Wnt pathway, as control cell lines. It is Judged that the inhibitory effect of the compound of the present invention on Wnt-dependent proliferation is not caused by other non-specific toxicity.
Treat the Colo205, Du4475, HELA and RKO cell lines cultured in their respective mediums in the logarithmic growth phase, collect the cells and prepare a uniform cell suspension of known concentration, and then add it to the 96-well cell culture plate Cell suspension, so that each well contains 1000 cells. Put it into a 5% CO2 incubator and incubate at 37° C. for 20-24 h. On the second day, the fully dissolved, 3-fold serially diluted compound was added to each cell culture well, so that the final maximum concentration in the cell culture well was 20 uM, and the culture was continued for 96 hours. In this test, Promega's cell viability detection test is used for detection. The more the cells proliferate, the stronger the final signal intensity will be. The detection instrument is SpectraMax, full wavelength mode. The wells only added with DMSO were used as positive control wells, and the wells that were not inoculated with cells were used as negative control wells. […] The IC50 value of cell proliferation inhibition was used to evaluate the inhibitory effect of the compound on the Wnt pathway and the toxic effect on normal cells (Table 2).

A further experiment relates to RKO. The experiment can be described thus: Proliferation inhibition, non-Wnt mutant control cell line RKO. To be noted: Homo sapiens, Wnt-independent control cell line, 96 hours, read-out: Antiproliferative IC50 RKO. Put shortly:
as §1

SMILES strings stand for the structures. A value given as a limit tells only on which side of the number the result lay.

What is called IC50 is the point on the concentration scale where inhibition reaches its midpoint. In the case of `C[C@H]1CCn2ccc3nc(NCc4cnn(Cc5ccc(F)cc5)c4)nc(c32)N1C` [63 (W22)], the concentration for half-maximal inhibition (IC50) is 23 nM in experiment [1]; 14.6 nM in the experiment on Colo205; 36.3 nM in the experiment on DU4475; 2590 nM with Hela; 3040 nM in the experiment on RKO.

Regarding `C[C@H]1Cn2ccc3nc(NCc4ccc(Oc5ccccc5)cc4)nc(c32)N1C` [67 (W46)], the IC50 is 34 nM in experiment [1]; 60.4 nM in the experiment with Colo205; 62.5 nM in the experiment on DU4475; 1090 nM in the experiment on Hela; 1180 nM with RKO.

`C[C@H]1CN(C)c2nc(NCc3cnn(Cc4ccc(C(F)(F)F)nc4)c3)nc3ccn1c23` [Example 19, (S)-4,6-dimethyl-N-((1-((6-(trifluoromethyl)pyridin-3-yl)methyl)-1H-pyrazol-4-yl)methyl)-5,6-dihydro-4H-pyrrolo[3,2,1-de]pteridin-2-amine]: the IC50 in experiment [1] is 9 nM; in the experiment on Colo205, 8 nM; with DU4475, 9 nM; in the experiment with Hela, over 10000 nM; in the experiment with RKO, over 10000 nM.

With `C[C@H]1Cn2ccc3nc(NCc4cnn(Cc5ccc(C(F)(F)F)nc5)c4)nc(c32)N1CC(F)(F)F` [70 (W55)], the IC50 in experiment [1] is 12 nM; with Colo205, 13.1 nM; in the experiment with DU4475, 13.1 nM; with Hela, 1410 nM; in the experiment with RKO, 1730 nM.

Take `CN1CC(F)(F)Cn2ccc3nc(NCc4cnn(Cc5ccc(C(F)(F)F)nc5)c4)nc1c32` [Example 26, 8,8-difluoro-6-methyl-N-((1-((6-(trifluoromethyl)pyridin-3-yl)methyl)-1H-pyrazol-4-yl)methyl)-6,7,8,9-tetrahydro-3,5,6,9a-tetraazabenzo[cd]azulene-4-amine]: the IC50 in experiment [1] was 19 nM; in the experiment on Colo205, 35 nM; in the experiment with DU4475 it was 28 nM; in the experiment on Hela, over 10000 nM; in the experiment on RKO, over 10000 nM.

On to `CC(C)N1C[C@H](C)n2ccc3nc(NCc4cnn(Cc5ccc(C(F)(F)F)nc5)c4)nc1c32` [Example 23, (S)-4-isopropyl-6-methyl-N-((1-((6-(trifluoromethyl)pyridin-3-yl)methyl)-1H-pyrazol-4-yl)methyl)-5,6-dihydro-4H-pyrrolo[3,2,1-de]pteridin-2-amine], for which the half-inhibitory concentration (IC50) is 11 nM in experiment [1]; 16 nM with Colo205; 15 nM in the experiment with DU4475; over 10000 nM in the experiment on Hela; 3380 nM with RKO.

Take `C[C@H]1Cn2ccc3nc(NCc4cnn(Cc5ccc(F)cc5)c4)nc(c32)N1C` [61 (W2)]: the 50% inhibitory concentration (IC50) was 2 nM in experiment [1]; 5.5 nM with Colo205; 11.8 nM in the experiment with DU4475; 4170 nM in the experiment with Hela; 3440 nM with RKO.

Take `CN1c2nc(NCc3cnn(Cc4ccc(C(F)(F)F)nc4)c3)nc3ccn(c23)CC1CC(F)(F)F` (stereo not shown) [87 (W136)]: the half-maximal inhibitory concentration (IC50) in experiment [1] came to 7 nM; with Colo205 it was 6.7 nM; in the experiment with DU4475, 5.4 nM; with Hela, 2920 nM; with RKO it was 3980 nM.

Consider `[2H]C1([2H])[C@H](COC)N(C)c2nc(NCc3cnn(Cc4ccc(C(F)(F)F)nc4)c3)nc3ccn1c23` [Example 24, (R)-5-(methoxymethyl)-4-methyl-N-((1-((6-(trifluoromethyl)pyridin-3-yl)methyl)-1H-pyrazole-4-yl)methyl)-5,6-dihydro-4H-pyrrolo[3,2,1-de]pteridin-6,6-d2-2-amine], for which the concentration for half-maximal inhibition (IC50) in experiment [1] was 13 nM; with Colo205, 9 nM; in the experiment on DU4475, 9.7 nM; in the experiment with Hela, over 10000 nM; in the experiment with RKO, over 10000 nM.

With `COC[C@H]1CN(C)c2nc(NCc3cnn(Cc4ccc(C(F)(F)F)nc4)c3)nc3cc(C)n1c23` [Example 25, (R)-6-(methoxymethyl)-4,8-dimethyl-N-((1-((6-(trifluoromethyl)pyridin-3-yl)methyl)-1H-pyrazol-4-yl)methyl)-5,6-dihydro-4H-pyrrolo[3,2,1-de]pteridin-2-amine], the IC50 in experiment [1] is 19 nM; with Colo205, 44 nM; in the experiment on DU4475, 50 nM; in the experiment with Hela it was over 10000 nM; with RKO, over 10000 nM.

Turning to `C[C@H]1C(=O)N2CCCc3nc(NCc4ccc(Oc5ccnc(C(F)(F)F)c5)nc4)nc(c32)N1C` [100 (W239)], the IC50 in experiment [1] was 50 nM; with Colo205, 59 nM; in the experiment on DU4475, 52 nM; with Hela it was over 10000 nM; in the experiment on RKO it was over 10000 nM.

As to `COC[C@H]1C(=O)N2CCCc3nc(NCc4ccc(Oc5ccc(C(F)(F)F)nc5)nc4)nc(c32)N1C` [106 (W190), (S)-5-(methoxymethyl)-4-methyl-2-(((6-((6-(trifluoromethyl)pyridin-3-yl)oxo)pyridin-3-yl)methyl)amino)-4,5,9,10-tetrahydro-6H,8H-pyrido[3,2,1-de]pteridin-6-one], the IC50 is 54 nM in experiment [1]; 30 nM with Colo205; 46 nM in the experiment on DU4475; over 10000 nM in the experiment with Hela; over 10000 nM in the experiment on RKO.

Consider `CN1c2nc(NCc3cnn(CC(F)(F)F)c3)nc3ccn(c23)CC1(C)C` [84 (W123)], for which the half-inhibitory concentration (IC50) stood at 17 nM in experiment [1]; 41 nM in the experiment on Colo205; 36 nM in the experiment with DU4475; 4760 nM with Hela; 5540 nM with RKO.

Consider `C[C@H]1C(=O)N2CCCc3nc(NCc4ccc(Oc5ccc(C(F)(F)F)nc5)cc4)nc(c32)N1C` [101 (W213)], for which the IC50 in experiment [1] amounted to 47 nM; in the experiment with Colo205, 86 nM; in the experiment with DU4475 it was 73 nM; in the experiment on Hela, 6980 nM; in the experiment on RKO, 3930 nM.

On to `Cc1cn2c3c(nc(NCc4cnn(Cc5ccc(F)cc5)c4)nc13)N(C)[C@@H](C)C2` [65 (W32)], for which the concentration for half-maximal inhibition (IC50) came out at 20 nM in experiment [1]; 43.5 nM with Colo205; 41.7 nM in the experiment with DU4475; 3490 nM in the experiment on Hela; 1720 nM in the experiment on RKO.

As for `[2H]c1cc2nc(NCc3cnn(Cc4ccc(C(F)(F)F)nc4)c3)nc3c2n1C[C@H](C)N3C` [72 (W57)], the IC50 in experiment [1] was 7 nM; in the experiment on Colo205, 4.8 nM; in the experiment with DU4475, 2.8 nM; in the experiment with Hela, over 10000 nM; in the experiment on RKO, 3230 nM.

For `CN1c2nc(NCc3cnn(Cc4ccc(C(F)(F)F)nc4)c3)nc3ccn(c23)C[C@@H]1C1CC1` [75 (W77)], the half-inhibitory concentration (IC50) in experiment [1] stood at 15 nM; in the experiment on Colo205 it was 9.2 nM; in the experiment on DU4475 it was 6.7 nM; with Hela it was 3860 nM; in the experiment on RKO, 4260 nM.

For `C[C@H]1C(=O)N2CCCc3nc(NCc4cnn(Cc5ccc(F)cc5)c4)nc(c32)N1C` [Example 15, (S)-2-(((1-(4-fluorobenzyl)-1H-pyrazol-4-yl)methyl)amino)-4,5-dimethyl-4,5,9,10-tetrahydro-6H,8H-pyrido[3,2,1-de]pteridin-6-one], the 50% inhibitory concentration (IC50) in experiment [1] was 53 nM; in the experiment on Colo205, 41 nM; in the experiment with DU4475 it was 44 nM; in the experiment with Hela, over 10000 nM; in the experiment with RKO, over 10000 nM.

As to `C[C@H]1Cn2ccc3nc(NCc4ccc(OCCOCC(F)(F)F)nc4)nc(c32)N1C` [79 (W95)], the IC50 in experiment [1] was 20 nM; in the experiment with Colo205 it was 43.9 nM; in the experiment with DU4475, 23.7 nM; in the experiment on Hela it was 3670 nM; in the experiment with RKO it was 6890 nM.

Turning to `C[C@H]1Cn2ccc3nc(NCc4ccc(OCc5ccccc5)cc4)nc(c32)N1C` [74 (W69)], the IC50 came out at 10 nM in experiment [1]; 39 nM in the experiment on Colo205; 46 nM in the experiment with DU4475; 5510 nM in the experiment on Hela; 1690 nM in the experiment on RKO.

With `C[C@@H]1CN(C)c2nc(NCc3cnn(Cc4ccc(C(F)(F)F)nc4)c3)nc3ccn1c23` [Example 27, (R)-4,6-dimethyl-N-((1-((6-(trifluoromethyl)pyridin-3-yl)methyl)-1H-pyrazol-4-yl)methyl)-5,6-dihydro-4H-pyrrolo[3,2,1-de]pteridin-2-amine], the IC50 is 26 nM in experiment [1]; 76 nM in the experiment on Colo205; 37 nM in the experiment on DU4475; over 10000 nM with Hela; 4430 nM in the experiment with RKO.

Turning to `C[C@H]1C(=O)N2CCCc3nc(NCc4cnn(CCCC(F)(F)F)c4)nc(c32)N1C` [93 (W223)], the half-maximal inhibitory concentration (IC50) with Colo205 is 89 nM; in the experiment with DU4475, 79 nM; with Hela, over 10000 nM; with RKO, over 10000 nM.
